Read-outs that look alike come from different tables or passages of the source.
Tests used:
[1] = system: foot tapping in gerbils induced by NK-1 receptor agonist GR73632; experiment: Gerbil foot-tapping (Assay 2), induced by central infusion of NK-1 receptor agonist GR73632; type: in vivo, Mongolian gerbil; settings: Meriones unguiculatus, iv
Description: CNS-penetrant NK-1 receptor antagonists for use in the present invention can be identified by their ability to inhibit foot tapping in gerbils induced by anxiogenic agents (such as pentagastrin) or central infusion of NK-1 receptor agonists such as GR73632, or caused by aversive stimulation such as foot shock or single housing, based on the method of Rupniak & Williams, Eur. J. Pharmacol., 1994, 265, 179.
Male or female Mongolian gerbils (35-70 g) are anaesthetised by inhalation of an isoflurane/oxygen mixture to permit exposure of the jugular vein in order to permit administration of test compounds or vehicle in an injection volume of 5ml/kg i.v. Alternatively, test compounds may be administered orally or by subcutaneous or intraperitoneal routes. A skin incision is then made in the midline of the scalp to expose the skull. […]

[2] = system: cisplatin-induced emesis in ferrets; experiment: Ferret emesis (Assay 3), cisplatin-induced; type: in vivo; settings: Mustela putorius, po, 4 h; p.o., cisplatin 10 mg/kg i.v. at 60 minutes following dosing; read-out: ferret emesis: ID90
Method: Ten minutes later they are fed with approximately 100 g of tinned cat food. At 60 minutes following oral dosing, cisplatin (10 mg/kg) is given i.v. via a jugular vein catheter inserted under a brief period of halothane anaesthesia. The catheter is then removed, the jugular vein ligated and the skin incision closed. The ferrets recover rapidly from the anaesthetic and are mobile within 10-20 minutes. The animals are observed continuously during recovery from the anaesthetic and for 4 hours following the cisplatin injection, after which time the animals are killed humanely. The numbers of retches and vomits occurring during the 4 hours after cisplatin administration are recorded by trained observers.

[3] = system: separation-induced vocalisations by guinea-pig pups; experiment: Separation-induced vocalisation in guinea-pig pups (Assay 4); type: in vivo; settings: Cavia porcellus, po, 4 hr. pretreatment; read-out: guinea-pig vocalisation (4 hr. pretreatment): ID50
Method: Male and female guinea-pigs pups are housed in family groups with their mothers and littermates throughout the study. Experiments are commenced after weaning when the pups are 2 weeks old. Before entering an experiment, the pups are screened to ensure that a vigorous vocalisation response is reproducibly elicited following maternal separation. The pups are placed individually in an observation cage (55 cm×39 cm×19 cm) in a room physically isolated from the home cage for 15 minutes and the duration of vocalisation during this baseline period is recorded. […] On test days each pup receives an oral dose or an s.c. or i.p. injection of test compound or vehicle and is then immediately returned to the home cage with its mother and siblings for 30 to 60 minutes (or for up to 4 hours following an oral dose, dependent upon the oral pharmacokinetics of the test compound) before social isolation for 15 minutes as described above. […] Between 6 and 8 animals receive each test compound at each dose tested.

Structure (SMILES): OC[C@@H](O[C@H]1OCCN(Cc2nc[nH]n2)[C@H]1c1ccc(F)cc1)c1cc(C(F)(F)F)cc(C(F)(F)F)c1 [2-(R)-(1-(S)-(3,5-bis(trifluoromethyl)phenyl)-2-hydroxyethoxy)-3-(S) -(4-fluorophenyl)-4-(1,2,4-triazol-3-yl)methylmorpholine]
- ED50 ([1]; 5 min, i.v., immediately prior to GR73632 challenge (5 mins.), read-out: gerbil foot-tapping (5 mins.): ID50): 0.38 mg/kg
- ED50 ([1]; 24 hours prior to central NK1 agonist challenge, read-out: gerbil foot-tapping (24 hrs.): ID50): 2.2 mg/kg
- ED90 [2]: 1 mg/kg
- ED50 [3]: 0.91 mg/kg

Reference: US5977104A, “Use of NK-1 receptor antagonists for treating bipolar disorders” (Merck Sharp & Dohme Ltd., priority 1996, dated 1999)
